US20230128609A1, “TUMOR SUPPRESSION BY MODULATION OF NON-CANONICAL AUTOPHAGY (LAP) IN MYELOID CELLS” (St. Jude Children's Research Hospital, priority 2017, published 2023)

Test system: RAW cells expressing Venus-LC3
Assay: Evaluation of LAP, as assessed by LC3-II lipidation upon zymozan stimulation, by flow cytometry
Type: cell-based
Details: RAW cells expressing Venus-LC3 stimulated with zymozan-Alexa594 (ZYM) for 1 h, treatment started 30 min prior to stimulation, digitonin-permeabilized cells
Method: (FIG. 9D) Evaluation of LAP, as assessed by LC3-II lipidation upon stimuli. RAW cells expressing Venus-LC3 were stimulated with ZYM for 1 h, treated with digitonin and accumulation of lipidated LC3-II in permeabilized cells was measured by flow cytometry. (FIG. 9E) Quantification of FIG. 9D, in MFI. […] Flow cytometry analysis. At the indicated time points, GFP-LC3+ cells can be collected, washed once with FACS buffer, and permeabilized with digitonin (Sigma, 200 g ml-1) for 15 min on ice. Cells can be washed 3 times with FACS buffer and analysed by flow cytometry for membrane-bound GFP—LC3—II.

| Structure (SMILES) | LAP activity in vitro (LC3-II lipidation upon stimuli) |
| --- | --- |
| c1ccc2c(c1)[I+]c1ccccc1-2 [DPI, diphenyleneiodonium] | abrogates LAP activity |
| COc1cc(C(C)=O)ccc1O [apocynin] | abrogates LAP activity |
